Assay results taken from ChEMBL document CHEMBL3885881, “DrugMatrix”.

Legend:
[1] = species: Rattus norvegicus; format: toxicity, organism-based, Sprague-Dawley; conditions: in vivo, po, 0 mg/kg, 24 h, route oral GAVAGE, dose level Control, time 1 day, vehicle 100 % WATER
Description: DrugMatrix - Regimen: Single

[2] = species: Rattus norvegicus; assay: DrugMatrix - Regimen: Daily Repeat; format: toxicity, organism-based, Sprague-Dawley; parameters: regimen Daily Repeat, gender Male, age 6-8 weeks; conditions: in vivo, po, 0 mg/kg, […], route oral GAVAGE, dose level Control, time 14 day, vehicle 100 % WATER

c1ccncc1 [PYRIDINE] was tested, and the “ABSOLUTE EOSINOPHIL” value ([1]; tissue Blood) was 91.83 CELLS/uL, the “ABSOLUTE LYMPHOCYTE” value ([1]; tissue Blood) was 13862.33 CELLS/uL and the “ABSOLUTE MONOCYTE” value ([1]; tissue Blood) was 437.83 CELLS/uL. The “ABSOLUTE SEGMENTED NEUTROPHIL” value ([1]; tissue Blood) was 1358 CELLS/uL, the BASOPHIL ([1]; tissue Blood) was 0% and the EOSINOPHIL ([1]; tissue Blood) was 0.5%. For the same molecule, the “ERYTHROCYTE COUNT” value ([1]; tissue Blood) was 5.12 x10E6/uL, the HEMATOCRIT ([1]; tissue Blood) was 31.77% and the HEMOGLOBIN ([1]; tissue Blood) was 11.8 G/DL. For the same molecule, the “LEUKOCYTE COUNT” value ([1]; tissue Blood) was 15.75 x10E3/uL, the LYMPHOCYTE ([1]; tissue Blood) was 88.33% and the “MEAN CORPUSCULAR HEMOGLOBIN” value ([1]; tissue Blood) was 23.07 pg. For the same molecule, the “MEAN CORPUSCULAR HEMOGLOBIN CONCENTRATION” value ([1]; tissue Blood) was 37.17 G/DL, the “MEAN CORPUSCULAR VOLUME” value ([1]; tissue Blood) was 62.15 fL and the MONOCYTE ([1]; tissue Blood) was 2.67%. For the same molecule, the NEUTROPHIL ([1]; tissue Blood) was 8.5%, the “NUCLEATED RED BLOOD CELLS” value ([1]; tissue Blood) was 0 /100WBC and the “PLATELET COUNT” value ([1]; tissue Blood) was 1113.83 x10E3/uL. The “ALANINE AMINOTRANSFERASE” value ([1]; tissue Plasma) was 45.5 u/L, the ALBUMIN ([1]; tissue Plasma) was 4.07 G/DL and the “ALKALINE PHOSPHATASE” value ([1]; tissue Plasma) was 343.83 u/L. For the same molecule, the “ASPARTATE AMINOTRANSFERASE” value ([1]; tissue Plasma) was 70.67 u/L, the “BLOOD UREA NITROGEN” value ([1]; tissue Plasma) was 13 mg/dL and the “CARBON DIOXIDE” value ([1]; tissue Plasma) was 33 mmol/L. The CHLORIDE ([1]; tissue Plasma) was 100.33 MEQ/L, the CHOLESTEROL ([1]; tissue Plasma) was 76.67 mg/dL and the CREATININE ([1]; tissue Plasma) was 0.12 mg/dL. The GLUCOSE ([1]; tissue Plasma) was 148.67 mg/dL, the “LACTATE DEHYDROGENASE” value ([1]; tissue Plasma) was 116.67 u/L and the LIPASE ([1]; tissue Plasma) was 8 u/L. It also gave a PHOSPHORUS ([1]; tissue Plasma) of 12.58 mg/dL, a POTASSIUM ([1]; tissue Plasma) of 6.33 MEQ/L and an SODIUM ([1]; tissue Plasma) of 142.88 MEQ/L. The “TOTAL BILIRUBIN” value ([1]; tissue Plasma) was 0.18 mg/dL, the “TOTAL PROTEIN” value ([1]; tissue Plasma) was 5.77 G/DL and the “URIC ACID” value ([1]; tissue Plasma) was 1.27 mg/dL. The “ABSOLUTE BASOPHIL” value ([2]; tissue Blood) was 0 CELLS/uL, the “ABSOLUTE EOSINOPHIL” value ([2]; tissue Blood) was 117.17 CELLS/uL and the “ABSOLUTE LYMPHOCYTE” value ([2]; tissue Blood) was 12774.17 CELLS/uL. For the same molecule, the “ABSOLUTE MONOCYTE” value ([2]; tissue Blood) was 419 CELLS/uL, the “ABSOLUTE SEGMENTED NEUTROPHIL” value ([2]; tissue Blood) was 2139.67 CELLS/uL and the BASOPHIL ([2]; tissue Blood) was 0%. The EOSINOPHIL ([2]; tissue Blood) was 0.67%, the “ERYTHROCYTE COUNT” value ([2]; tissue Blood) was 6.61 x10E6/uL and the HEMATOCRIT ([2]; tissue Blood) was 37.58%. The HEMOGLOBIN ([2]; tissue Blood) was 13.8 G/DL, the “LEUKOCYTE COUNT” value ([2]; tissue Blood) was 15.45 x10E3/uL and the LYMPHOCYTE ([2]; tissue Blood) was 83%. For the same molecule, the “MEAN CORPUSCULAR HEMOGLOBIN” value ([2]; tissue Blood) was 20.87 pg, the “MEAN CORPUSCULAR HEMOGLOBIN CONCENTRATION” value ([2]; tissue Blood) was 36.72 G/DL and the “MEAN CORPUSCULAR VOLUME” value ([2]; tissue Blood) was 56.85 fL. For the same molecule, the MONOCYTE ([2]; tissue Blood) was 2.67%, the NEUTROPHIL ([2]; tissue Blood) was 13.67% and the “NUCLEATED RED BLOOD CELLS” value ([2]; tissue Blood) was 0 /100WBC. For the same molecule, the “PLATELET COUNT” value ([2]; tissue Blood) was 1108.33 x10E3/uL, the “ALANINE AMINOTRANSFERASE” value ([2]; tissue Plasma) was 56.83 u/L and the ALBUMIN ([2]; tissue Plasma) was 4.18 G/DL. The “ALKALINE PHOSPHATASE” value ([2]; tissue Plasma) was 354.33 u/L, the “ASPARTATE AMINOTRANSFERASE” value ([2]; tissue Plasma) was 93.33 u/L and the “BLOOD UREA NITROGEN” value ([2]; tissue Plasma) was 16.67 mg/dL. The “CARBON DIOXIDE” value ([2]; tissue Plasma) was 27.83 mmol/L, the CHLORIDE ([2]; tissue Plasma) was 102.17 MEQ/L and the CHOLESTEROL ([2]; tissue Plasma) was 62.33 mg/dL. The CREATININE ([2]; tissue Plasma) was 0.2 mg/dL, the GLUCOSE ([2]; tissue Plasma) was 137 mg/dL and the “LACTATE DEHYDROGENASE” value ([2]; tissue Plasma) was 407 u/L. It also gave an LIPASE ([2]; tissue Plasma) of 10.83 u/L, a PHOSPHORUS ([2]; tissue Plasma) of 11.45 mg/dL and a POTASSIUM ([2]; tissue Plasma) of 6.51 MEQ/L. The SODIUM ([2]; tissue Plasma) was 145.57 MEQ/L, the “TOTAL BILIRUBIN” value ([2]; tissue Plasma) was 0.2 mg/dL and the “TOTAL PROTEIN” value ([2]; tissue Plasma) was 6.3 G/DL. For the same molecule, the “URIC ACID” value ([2]; tissue Plasma) was 1.93 mg/dL.
